In ChEMBL document CHEMBL1201862, “PubChem BioAssay data set” (2004):
Several values for one entry are separate records, joined by “and”; a condition that tells them apart may be missing. Identical values can stand only once. Activity calls are given as the source filed them. Cut-off read from the data, not from the text of the source, for most assays here: actives have a measured EC50 and inactives only a lower limit.

What was measured:
BJ [1] = assay: cells; format: functional, cell-based; conditions: Homo sapiens
Streptokinase A = target: T1, Streptokinase A (Streptococcus pyogenes serotype M1, UniProt P10520); assay: viability-normalized secreted streptokinase activity reduction – plasminogen activation absorbance, OD405, dose response (AID 1914); format: functional, Streptococcus pyogenes M1 GAS;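 note: secreted streptokinase activity via plasminogen activation per viability signal from cell pellet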
T1 sequence (P10520 whole entry): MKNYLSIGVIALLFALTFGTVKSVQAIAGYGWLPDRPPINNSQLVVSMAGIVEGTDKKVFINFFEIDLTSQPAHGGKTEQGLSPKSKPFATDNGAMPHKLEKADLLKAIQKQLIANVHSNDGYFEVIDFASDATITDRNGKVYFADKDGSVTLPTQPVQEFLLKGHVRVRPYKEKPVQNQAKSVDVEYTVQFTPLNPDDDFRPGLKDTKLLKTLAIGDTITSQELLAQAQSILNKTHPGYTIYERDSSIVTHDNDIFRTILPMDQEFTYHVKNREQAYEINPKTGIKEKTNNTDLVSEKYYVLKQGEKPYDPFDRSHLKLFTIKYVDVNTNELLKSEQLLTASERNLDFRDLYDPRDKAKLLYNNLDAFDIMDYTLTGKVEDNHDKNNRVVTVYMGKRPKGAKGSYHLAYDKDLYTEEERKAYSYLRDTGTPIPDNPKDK

NS3 = NS3 (Hepatitis C virus, UniProt A3EZJ3); assay: PubChem AID 2173; set-up: species or system Hepacivirus hominis
Sequence of NS3 (A3EZJ3 whole entry): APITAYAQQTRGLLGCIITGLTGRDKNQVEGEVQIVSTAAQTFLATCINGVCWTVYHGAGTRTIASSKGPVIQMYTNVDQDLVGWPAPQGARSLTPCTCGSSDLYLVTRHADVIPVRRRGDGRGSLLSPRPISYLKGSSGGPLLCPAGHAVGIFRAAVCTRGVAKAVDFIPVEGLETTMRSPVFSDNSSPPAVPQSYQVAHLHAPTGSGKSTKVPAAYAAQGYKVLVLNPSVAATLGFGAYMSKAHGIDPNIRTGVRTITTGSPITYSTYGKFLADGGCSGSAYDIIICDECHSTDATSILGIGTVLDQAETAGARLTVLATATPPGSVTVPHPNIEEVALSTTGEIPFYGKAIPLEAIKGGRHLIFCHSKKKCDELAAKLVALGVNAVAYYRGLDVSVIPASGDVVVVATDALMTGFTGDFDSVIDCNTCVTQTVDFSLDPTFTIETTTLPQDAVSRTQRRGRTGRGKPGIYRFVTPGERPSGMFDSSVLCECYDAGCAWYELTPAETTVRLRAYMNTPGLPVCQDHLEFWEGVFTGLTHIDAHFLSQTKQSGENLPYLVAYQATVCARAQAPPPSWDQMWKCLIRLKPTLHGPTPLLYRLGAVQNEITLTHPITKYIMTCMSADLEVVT

[2] = target: Heat shock protein HSP 90-alpha (Homo sapiens, UniProt P07900); format: functional, organism-based
[3] = target: T2, Heat shock factor protein 1 (Mus musculus, UniProt P38532); assay: enhancement of HSF1-driven luciferase signal – cell-based, NIH3T3, luminescence, dose retest, confirmation (AID 435004); format: functional;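 note: stress induced by proteasome inhibitor MG132 added 30 min after compound; luciferase reporter driven by HSF1 response element in NIH3T3 cells; actives raise luminescence as potentiators of the MG132 stress response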
T2 sequence (P38532 whole entry): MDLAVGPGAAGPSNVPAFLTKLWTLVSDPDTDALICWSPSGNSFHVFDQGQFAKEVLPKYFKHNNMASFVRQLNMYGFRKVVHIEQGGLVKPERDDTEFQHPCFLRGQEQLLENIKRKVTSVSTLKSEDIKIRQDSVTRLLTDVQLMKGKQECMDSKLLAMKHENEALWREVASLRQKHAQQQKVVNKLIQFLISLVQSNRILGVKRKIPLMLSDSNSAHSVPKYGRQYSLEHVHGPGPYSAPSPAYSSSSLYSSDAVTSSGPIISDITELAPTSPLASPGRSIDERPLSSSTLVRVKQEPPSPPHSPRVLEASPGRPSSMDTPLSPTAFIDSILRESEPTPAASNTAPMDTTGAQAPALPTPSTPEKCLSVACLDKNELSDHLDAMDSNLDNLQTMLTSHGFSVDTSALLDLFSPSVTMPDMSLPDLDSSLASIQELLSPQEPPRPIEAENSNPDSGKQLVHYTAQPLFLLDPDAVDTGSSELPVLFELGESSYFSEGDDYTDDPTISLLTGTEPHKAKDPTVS

[4] = NIH-3T3 fibroblast cytotoxicity, dose response, cytotoxicity control, cell-based, fluorescence, Alamar Blue, secondary assay (AID 2327); format: functional;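 note: NIH-3T3 mouse fibroblasts cultured with fluconazole at 8 µg/mL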
[5] = fluconazole-exposed Candida albicans growth modulators – fluorescence, retest, confirmation (AID 2467); format: functional, cell-based
[6] = target: T3, Serine/threonine-protein phosphatase (Candida dubliniensis (strain CD36 / CBS 7987 / NCPF 3949 / NRRLY-17841) (Yeast), UniProt B9W6M3); assay: blockers of CaCl2-induced CDRE-lacZ signaling – S. cerevisiae, luminescence, secondary, dose response (AID 2388); format: functional, cell-based;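 note: yeast reporter cells carrying a calcineurin-responsive lacZ construct stimulated with calcium chloride; luminescent beta-galactosidase reporter signal in whole cells rather than isolated phosphatase activity; potency for inhibition where a drop in reporter signal means calcineurin blockade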
T3 sequence (B9W6M3 whole entry): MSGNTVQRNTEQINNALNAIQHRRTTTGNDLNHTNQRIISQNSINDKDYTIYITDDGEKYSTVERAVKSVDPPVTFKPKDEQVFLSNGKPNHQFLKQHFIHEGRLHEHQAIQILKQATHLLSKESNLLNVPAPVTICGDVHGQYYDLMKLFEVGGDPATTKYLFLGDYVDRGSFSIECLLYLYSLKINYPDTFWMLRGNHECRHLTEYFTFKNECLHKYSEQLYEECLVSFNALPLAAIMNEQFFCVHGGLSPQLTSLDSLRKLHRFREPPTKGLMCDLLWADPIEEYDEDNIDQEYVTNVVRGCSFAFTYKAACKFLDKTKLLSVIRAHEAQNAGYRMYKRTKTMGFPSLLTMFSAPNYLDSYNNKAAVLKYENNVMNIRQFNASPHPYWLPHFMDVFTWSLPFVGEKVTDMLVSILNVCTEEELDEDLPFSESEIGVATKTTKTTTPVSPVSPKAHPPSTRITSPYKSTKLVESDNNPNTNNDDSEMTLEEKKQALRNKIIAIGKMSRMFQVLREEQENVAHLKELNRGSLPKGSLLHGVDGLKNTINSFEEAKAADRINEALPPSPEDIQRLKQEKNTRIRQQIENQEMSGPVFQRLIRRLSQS

[7] = Trypanosoma cruzi growth suppression in host cells – NIH3T3 host cells, beta-gal luminescence, confirmation (AID 2044); format: functional, cell-based;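 note: intracellular parasites grown in NIH/3T3 mouse fibroblasts as host cells; luminescent beta-galactosidase reporter signal from transgenic T. cruzi replicating inside host cells; inhibitors lower the luminescence signal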
BJ [8] = assay: BJ-TERT-LT-ST fibroblast viability loss – cell-based, RAS-independent, luminescence, dose response (AID 1935); format: functional; conditions: Homo sapiens;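 note: BJ fibroblasts immortalized with TERT plus LT and ST oncogenes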
Streptococcus = assay: GAS UMAA2166 growth inhibition – luminescence, BacTiterGlo, counter-screen for streptokinase expression inhibitor project, dose response (AID 1915); format: functional, organism-based;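 note: potency for reduction of bacterial viability or growth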
[9] = target: ATP-dependent molecular chaperone HSP82 (Candida albicans (strain WO-1) (Yeast), UniProt C4YTQ8); assay: steroid-induced GRE reporter decrease in yeast – S. cerevisiae, luminescence, Hsp90 inhibitor project, dose response (AID 2400); format: functional, cell-based;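 note: beta-galactosidase luminescence from glucocorticoid response element reporter as proxy for Hsp90 function; inhibitor potency where signal loss means Hsp90 inhibition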
Sequence of ATP-dependent molecular chaperone HSP82 (C4YTQ8 whole entry): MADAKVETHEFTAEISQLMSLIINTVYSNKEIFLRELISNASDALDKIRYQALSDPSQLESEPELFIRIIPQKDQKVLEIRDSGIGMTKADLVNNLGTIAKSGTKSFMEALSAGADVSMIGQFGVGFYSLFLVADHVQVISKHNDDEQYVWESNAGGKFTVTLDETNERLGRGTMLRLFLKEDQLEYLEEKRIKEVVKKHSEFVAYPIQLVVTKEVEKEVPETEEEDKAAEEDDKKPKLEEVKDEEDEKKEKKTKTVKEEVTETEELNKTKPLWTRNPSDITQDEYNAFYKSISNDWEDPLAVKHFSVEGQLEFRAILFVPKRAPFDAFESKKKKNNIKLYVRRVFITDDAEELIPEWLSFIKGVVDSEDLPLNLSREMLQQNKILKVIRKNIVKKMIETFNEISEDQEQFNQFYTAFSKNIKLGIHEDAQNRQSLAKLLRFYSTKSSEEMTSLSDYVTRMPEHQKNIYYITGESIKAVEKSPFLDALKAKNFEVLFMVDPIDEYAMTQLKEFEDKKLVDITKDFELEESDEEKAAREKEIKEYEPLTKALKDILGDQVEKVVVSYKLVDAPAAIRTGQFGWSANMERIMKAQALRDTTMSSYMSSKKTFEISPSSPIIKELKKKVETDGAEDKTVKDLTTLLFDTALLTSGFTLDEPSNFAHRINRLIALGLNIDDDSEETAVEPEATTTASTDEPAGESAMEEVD

[10] = NIH3T3 cell viability loss – ATP luminescence, mouse fibroblasts, counter-screen, dose response (AID 2010); format: functional, cell-based;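 note: cells exposed to compound for about 90 hours before reading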
[11] = tested on: Streptococcus sp. 'group A'; assay: Streptococcus pyogenes SK(-)GAS viability under kanamycin – luminescence, BacTiterGlo, confirmation, counter-screen for streptokinase expression inhibitor project, dose response (AID 1900); format: functional, organism-based
BJ [12] = assay: BJ-TERT fibroblast viability loss – cell-based, RAS-independent, luminescence, dose response (AID 1933); format: functional; conditions: Homo sapiens
[13] = DRD fibroblast viability loss – cell-based, non-viral oncogenic, luminescence, dose response (AID 1934); format: functional; conditions: Homo sapiens
[14] = target: T3, Serine/threonine-protein phosphatase; assay: Fluorescence Cell-Based Secondary Assay to Identify Inhibitors of Calcineurin. [Related pubchem assays (depositor defined):AID1979, AID2007]; format: functional
[15] = target: T4, Beta-2 adrenergic receptor (Homo sapiens, UniProt P07550); assay: Dose response for HTS for Beta-2AR agonists via FAP method from Powderset1.; format: functional
T4 sequence (P07550 whole entry): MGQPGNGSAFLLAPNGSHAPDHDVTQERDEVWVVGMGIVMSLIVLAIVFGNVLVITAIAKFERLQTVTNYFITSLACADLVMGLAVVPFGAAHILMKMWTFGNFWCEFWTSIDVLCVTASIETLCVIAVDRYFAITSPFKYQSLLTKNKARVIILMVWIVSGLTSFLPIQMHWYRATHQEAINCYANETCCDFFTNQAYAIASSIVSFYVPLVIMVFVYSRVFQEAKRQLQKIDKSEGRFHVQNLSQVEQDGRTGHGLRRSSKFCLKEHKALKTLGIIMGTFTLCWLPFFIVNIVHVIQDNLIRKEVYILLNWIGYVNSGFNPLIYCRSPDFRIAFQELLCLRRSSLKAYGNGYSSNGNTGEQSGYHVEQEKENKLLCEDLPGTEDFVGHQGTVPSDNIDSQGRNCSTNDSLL

[16] = target: T4, Beta-2 adrenergic receptor; assay: ADRB2 activation measured by internalization – cell-based, FAP fluorogen, flow cytometry, cherry pick 1, dose response (AID 588763); format: functional
Kallikrein-7 = Kallikrein-7 (Homo sapiens, UniProt P49862); assay: Fluorescence Intensity-based biochemical primary high throughput dose response assay to identify activators of kallikrein-7 (K7) zymogen.
Sequence of Kallikrein-7 (P49862 whole entry): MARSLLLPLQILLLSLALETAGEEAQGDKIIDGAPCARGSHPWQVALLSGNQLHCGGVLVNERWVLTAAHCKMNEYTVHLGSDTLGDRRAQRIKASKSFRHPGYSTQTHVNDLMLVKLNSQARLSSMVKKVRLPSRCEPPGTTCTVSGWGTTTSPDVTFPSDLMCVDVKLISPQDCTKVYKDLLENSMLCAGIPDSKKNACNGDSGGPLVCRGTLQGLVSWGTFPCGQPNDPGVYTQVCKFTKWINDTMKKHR

CAAX prenyl protease 2 [17] = target: CAAX prenyl protease 2 (Homo sapiens, UniProt Q9Y256); assay: inhibition of Ras-converting CAAX protease Rce1 – biochemical, yeast membranes, quenched-peptide fluorescence, cherry-pick, dose response (AID 588849)
Sequence of CAAX prenyl protease 2 (Homo sapiens, UniProt Q9Y256) (Q9Y256 whole entry): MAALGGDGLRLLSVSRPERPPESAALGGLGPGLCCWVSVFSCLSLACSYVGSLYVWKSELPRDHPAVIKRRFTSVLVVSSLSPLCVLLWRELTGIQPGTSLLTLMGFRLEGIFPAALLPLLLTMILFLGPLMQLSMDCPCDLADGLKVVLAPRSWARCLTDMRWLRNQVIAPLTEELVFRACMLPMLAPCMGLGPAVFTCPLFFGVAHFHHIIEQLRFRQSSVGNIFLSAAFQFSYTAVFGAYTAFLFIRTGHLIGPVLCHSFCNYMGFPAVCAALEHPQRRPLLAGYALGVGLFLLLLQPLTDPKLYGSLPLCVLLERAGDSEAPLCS

Trypsin = Trypsin (Sus scrofa, UniProt P00761); assay: trypsin protease activity blockade – biochemical, quenched peptide fluorescence, cherry-pick, selectivity assay for Rce1 protease inhibitor project, dose response (AID 488789)
Sequence of Trypsin (P00761 whole entry): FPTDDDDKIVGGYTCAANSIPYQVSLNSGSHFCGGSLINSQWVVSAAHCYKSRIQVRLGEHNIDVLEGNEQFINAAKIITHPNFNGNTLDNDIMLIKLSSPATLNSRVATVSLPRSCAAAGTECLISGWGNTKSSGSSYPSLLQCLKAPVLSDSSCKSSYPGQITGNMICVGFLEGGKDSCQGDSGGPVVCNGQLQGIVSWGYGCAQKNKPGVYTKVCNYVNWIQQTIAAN

CAAX prenyl protease 2 [18] = target: CAAX prenyl protease 2 (Saccharomyces cerevisiae S288c, UniProt Q03530); format: biochemical
Sequence of CAAX prenyl protease 2 (Saccharomyces cerevisiae S288c, UniProt Q03530) (Q03530 whole entry): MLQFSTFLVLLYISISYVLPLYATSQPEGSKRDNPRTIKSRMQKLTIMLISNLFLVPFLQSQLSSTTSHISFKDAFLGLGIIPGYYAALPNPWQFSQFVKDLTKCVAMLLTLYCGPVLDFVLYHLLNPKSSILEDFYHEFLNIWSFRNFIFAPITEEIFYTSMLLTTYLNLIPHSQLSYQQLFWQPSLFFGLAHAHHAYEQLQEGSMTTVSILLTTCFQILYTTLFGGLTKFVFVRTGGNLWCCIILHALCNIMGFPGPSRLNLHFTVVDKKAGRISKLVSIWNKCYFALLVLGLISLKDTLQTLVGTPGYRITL

[19] = reduction of Shn3 3'UTR-driven luciferase in osteoblasts – cell-based, Clone20 osteoblasts, firefly luciferase, cherry-picked, dose response (AID 624132); format: functional;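 note: firefly luciferase luminescence from reporter carrying the Shn3 3'UTR in osteoblasts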
[20] = target: COUP transcription factor 2 (Homo sapiens, UniProt P24468); assay: Luminescence-based cell-based high throughput dose response assay to identify inhibitors of COUP-TFII (NR2F2).; format: functional;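 note: HEK293 cells transiently cotransfected with COUP-TFII expression vector and reporter; luciferase reporter luminescence driven by COUP-TFII from the pX2-168 reporter plasmid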
Sequence of COUP transcription factor 2 (P24468 whole entry): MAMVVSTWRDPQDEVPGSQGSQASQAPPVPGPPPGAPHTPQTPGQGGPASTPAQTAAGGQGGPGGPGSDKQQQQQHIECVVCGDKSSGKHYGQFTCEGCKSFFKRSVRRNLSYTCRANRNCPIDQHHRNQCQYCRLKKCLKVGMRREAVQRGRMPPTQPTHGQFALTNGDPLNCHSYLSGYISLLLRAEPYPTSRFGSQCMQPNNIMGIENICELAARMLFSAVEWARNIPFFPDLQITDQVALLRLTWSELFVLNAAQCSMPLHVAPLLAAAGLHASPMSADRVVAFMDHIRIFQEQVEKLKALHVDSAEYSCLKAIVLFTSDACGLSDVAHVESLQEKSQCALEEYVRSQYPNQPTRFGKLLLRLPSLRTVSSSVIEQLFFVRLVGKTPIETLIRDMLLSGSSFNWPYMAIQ

cells = format: functional, cell-based; conditions: HEK-CNG
Jurkat = assay: blockers of NF-kB activation in T cells – Jurkat, luciferase reporter, luminescence, B- and T-cell, dose response (AID 489004); format: functional, cell-based; conditions: Homo sapiens;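 note: NF-kB luciferase reporter Jurkat cells stimulated with PMA plus ionomycin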
[21] = Luminescence Cell-Based Dose Response HTS to Identify Inhibitors of 5'UTR Stem-Loop Driven Prion Protein mRNA Translation in H4 Neuroglioblastoma Cells. [Related pubchem assays: 1827 (Project Summary), 1813 (Primary HTS)]; format: functional
[22] = HEK-293T viability loss, compound-treated – cell-based, uHTS hits, cytotoxicity control for B/T-cell NF-kB inhibitor project, dose response (AID 489019); format: functional;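 note: IC50 reflects cytotoxicity as loss of cell viability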
[23] = non-specific 3'UTR reporter inhibition in Clone20-Shn3RL – cell-based, Renilla luciferase, cherry-picked, counter-screen for Shn3 inhibitor project, dose response (AID 624133); format: functional
[24] = alpha-synuclein stem-loop luciferase translation blockers – H4 neuroglioma cells, luminescence, confirmation (AID 1988); format: functional, cell-based
Galanin receptor type 3 = target: T5, Galanin receptor type 3 (Homo sapiens, UniProt O60755); assay: Fluorescence-based cell-based primary high throughput dose response assay to identify antagonists of the Galanin Receptor 3 (GalR3).; format: functional
T5 sequence (O60755 whole entry): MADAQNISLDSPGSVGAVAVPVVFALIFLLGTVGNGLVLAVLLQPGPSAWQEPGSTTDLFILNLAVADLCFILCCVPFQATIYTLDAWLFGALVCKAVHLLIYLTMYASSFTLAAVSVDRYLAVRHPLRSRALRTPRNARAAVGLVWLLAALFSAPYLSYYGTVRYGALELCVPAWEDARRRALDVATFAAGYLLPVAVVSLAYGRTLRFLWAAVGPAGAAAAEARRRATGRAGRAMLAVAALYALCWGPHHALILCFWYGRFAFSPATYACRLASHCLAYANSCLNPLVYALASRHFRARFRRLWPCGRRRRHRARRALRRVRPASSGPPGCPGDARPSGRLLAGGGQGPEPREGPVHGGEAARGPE

[25] = loss of viability in HepG2 cells – cell-based, CellTiter-Glo, cherry-picked, cytotoxicity control for Shn3 inhibitor project, dose response (AID 624134); format: functional
[26] = luciferase reporter signal suppression in cells – H4 neuroglioma cells, luminescence, dose response (AID 1990); format: functional, cell-based
INS1 = assay: INS-1E survival protection against cytokine death – cell-based, luminescence, retest, dose response (AID 449756); format: functional; conditions: Rattus norvegicus;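 note: cell death triggered by IL-1 beta plus TNF-alpha plus IFN-gamma mixture; protective hits raise ATP signal compared with cytokine alone wells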

Cc1ccc(/C=C/C(=O)c2ccccc(=O)c2O)cc1C
active: EC50 (BJ [1]) 24.9 µM | IC50 (NS3) 2.63 µM | AC50 [2] 4.22 µM | EC50 [3] 40 µM | EC50 [5] 0.851 µM | EC50 [6] 5.55 µM | EC50 [7] 1.83 µM | EC50 (Streptococcus) 11.5 µM | EC50 [9] 2.09 µM | EC50 [10] 17.5 µM | EC50 [11] 5.05 µM | EC50 (BJ [12]) 23.7 µM | EC50 [13] 77.7 µM | EC50 [14] 12.9 µM
inconclusive: EC50 [4] > 160 µM
> 150 µM (not active): EC50 (Streptokinase A) | EC50 (BJ [8])

COC(=O)c1ccc(NC(=O)COc2ccc(S(=O)(=O)N3CCCCC3)cc2)cc1
active: EC50 [15] 0.225 µM | EC50 [16] 590 nM and 280 nM

CCNc1nc(C)c(CN(C(C)=O)c2ccccc2)nc1C#N
inactive: EC50 (Kallikrein-7) > 69.5 µM
active: AC50 (CAAX prenyl protease 2 [17]) 5.91 µM | AC50 (Trypsin) 5.26 µM | AC50 (CAAX prenyl protease 2 [18]) 48.9 µM

COc1ccc(CCNc2ncnc3sc(C)cc23)cc1OC
active: AC50 [19] < 0.26 µM | IC50 [20] 2.21 µM | EC50 [5] 0.767 µM | AC50 [23] 0.796 µM | IC50 (Galanin receptor type 3) 0.43 µM | AC50 [25] 0.739 µM | AC50 (INS1) 0.902 µM
inactive: EC50 [4] > 150 µM | EC50 (cells) > 29.9 µM | IC50 (Jurkat) 45.3 µM | EC50 [6] > 180 µM | IC50 [22] > 80 µM | EC50 [9] > 150 µM
> 120 µM (not active): EC50 [21] | EC50 [24] | EC50 [26]
